Results from paper PMC10138714, “Evaluation of Some Safety Parameters of Dual Histamine H3 and Sigma-2 Receptor Ligands with Anti-Obesity Potential” (International Journal of Molecular Sciences, 2023).

How the values were obtained:
rats = experiment: Heart rate and ECG intervals in rats; type: in vivo, male Wistar rats; conditions: 10 mg/kg i.p.
Description: (§1) Blood pressure measurement and ECG were performed on male Wistar rats weighing 200–220 g (six months old). Locomotor activity and chimney tests were performed on adult male Albino Swiss (CD-1) mice weighing 18–22 g ([…]). The animals were obtained from an accredited animal house at the Faculty of Pharmacy, Jagiellonian University Medical College, Krakow, Poland. The experimental groups consisted of 6–8 animals. The animals were housed in constant temperature (22–24 °C) and humidity (40–60%) facilities, exposed to 12:12 h light/dark cycles, and were maintained on a standard pellet diet with tap water available ad libitum. Rats and mice were housed in pairs or 8 animals per home cage, respectively.
In vivo electrocardiographic measurements were performed using an ASPEL ASCARD B5 apparatus, standard lead II, and a paper speed of 50 mm/s. The study was carried out after a single administration of the test compounds (10 mg/kg i.p.). […] The following parameters were then calculated and analyzed: duration of PQ, QT, QRS, RR intervals, and heart rate.

σ2R = target: σ2R; parameters: method as in PMID 34908391; conditions: cited from earlier work
normotensive rats = experiment: Blood pressure in anesthetized normotensive rats (carotid artery cannulation); type: in vivo, male Wistar rats
Description: as §1
Rats were anesthetized with thiopental (70 mg/kg) via i.p. injection. The left carotid artery was cannulated with polyethylene tubing filled with a heparin solution in saline to facilitate pressure measurements using a PowerLab Apparatus (ADInstruments, Sydney, Australia). After a 20 min stabilization period, the test compounds were administered i.p. at a dose of 10 mg/kg b.w. in a constant volume of 1 mL/kg b.w. Blood pressure was recorded immediately before administration and 5, 10, 15, 20, 30, 40, 50, and 60 min after the administration of the test compound [47].

[1] = target: T1, human ERG potassium channel (Kv11.1) (Homo sapiens, UniProt Q12809); experiment: Whole-cell automated patch clamp (QPatch16X), inhibition of hERG currents; type: cell-based; conditions: for IC50: CHO cells stably expressing human ERG, whole-cell, mean of three experiments, read-out: Mean IC50 ± SEM, inhibition of hERG currents; for Inhibition of hERG compared with verapamil: relative to reference compound verapamil
T1 construct: expressed in transfected cells
T1 sequence (Q12809 whole entry): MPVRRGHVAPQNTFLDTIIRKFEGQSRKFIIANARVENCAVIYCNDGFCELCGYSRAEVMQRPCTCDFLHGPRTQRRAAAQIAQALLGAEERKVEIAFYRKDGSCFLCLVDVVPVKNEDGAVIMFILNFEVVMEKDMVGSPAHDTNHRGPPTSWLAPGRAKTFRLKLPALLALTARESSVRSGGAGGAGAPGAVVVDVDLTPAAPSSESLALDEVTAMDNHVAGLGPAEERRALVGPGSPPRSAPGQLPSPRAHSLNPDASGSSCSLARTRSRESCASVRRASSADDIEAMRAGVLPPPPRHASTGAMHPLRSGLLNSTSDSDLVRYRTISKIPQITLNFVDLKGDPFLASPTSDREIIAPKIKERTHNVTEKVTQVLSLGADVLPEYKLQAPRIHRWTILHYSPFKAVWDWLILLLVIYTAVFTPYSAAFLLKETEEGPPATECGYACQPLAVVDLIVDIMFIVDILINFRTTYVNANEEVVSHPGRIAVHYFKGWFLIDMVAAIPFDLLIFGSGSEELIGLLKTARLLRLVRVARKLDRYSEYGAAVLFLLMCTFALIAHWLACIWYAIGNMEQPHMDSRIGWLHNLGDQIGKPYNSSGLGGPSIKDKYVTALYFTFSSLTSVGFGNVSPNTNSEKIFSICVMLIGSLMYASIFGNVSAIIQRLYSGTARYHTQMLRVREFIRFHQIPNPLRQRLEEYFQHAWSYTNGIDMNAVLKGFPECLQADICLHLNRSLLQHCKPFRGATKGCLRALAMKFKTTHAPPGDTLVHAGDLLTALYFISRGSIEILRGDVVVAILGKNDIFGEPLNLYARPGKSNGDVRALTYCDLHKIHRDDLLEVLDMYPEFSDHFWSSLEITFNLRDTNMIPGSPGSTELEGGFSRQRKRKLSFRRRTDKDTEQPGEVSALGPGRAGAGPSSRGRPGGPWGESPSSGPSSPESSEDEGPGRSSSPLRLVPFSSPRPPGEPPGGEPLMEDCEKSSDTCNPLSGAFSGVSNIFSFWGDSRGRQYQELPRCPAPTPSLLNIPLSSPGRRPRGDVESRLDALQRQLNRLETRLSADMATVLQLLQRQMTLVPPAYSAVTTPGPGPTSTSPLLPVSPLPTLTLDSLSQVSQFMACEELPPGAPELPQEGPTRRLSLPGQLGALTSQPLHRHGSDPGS
Description: Electrophysiology experiments were performed on a QPatch16X automatic patch clamp platform (Sophion Bioscience, Ballerup, Denmark). Chinese hamster ovary (CHO) cells stably expressing the human ERG potassium channel (Kv11.1) were cultured using standard procedures. On the day of the experiment, cells were collected from the culture flask using TrypLE Express solution (Life Technologies, Thermo Fisher Scientific, Carlsbad, California, United States) and resuspended in EX-CELL ACF CHO serum-free medium (Merck KGaA, Sigma-Aldrich, Darmstadt, Germany), supplemented with 25 mM HEPES, 100 U/mL penicillin/streptomycin, and 0.04 mg/mL soybean trypsin inhibitor (all components from Sigma Aldrich).
The cells were placed in the lidless microtube and located onboard the automated electrophysiology instrument, where they were automatically relocated to a built-in centrifuge.
Cells were transferred to pipetting wells of single-use 16-channel planar patch chip plates (QPlate 16X, Sophion Bioscience, Ballerup, Denmark) and gigaseals were formed upon application of a combined suction/voltage protocol in a standard protocol supplied by Sophion Bioscience for CHO cells. Once the whole-cell mode was obtained, the cells were kept in a holding potential of -90 mV between the programmed stimulation protocols.
Whole-cell potassium currents were measured in response to repeatedly executed voltage protocols constituted of the following steps: brief clamping to −50 mV (200 ms), subsequent depolarization to 20 mV for 4000 ms, and final repolarization to −50 mV when the outward tail current was measured for 4000 ms.
The average current peak values determined in the presence of particular concentrations of the compound tested were subjected to a sigmoidal dose–response curve fitting, where the bottom plateau parameter was constrained to 0. The IC50 values were then calculated from the obtained sigmoidal dose–response curves. Data were analyzed using QPatch Assay Software (v5.0, Sophion Bioscience, Ballerup, Denmark) and represent the mean of three experiments carried out on distinct cells.

[2] = test system: rats fed a palatable diet; experiment: Plasma AlaT, AspaT, gGT and ALP activity after repeated administration in rats fed a palatable diet; type: in vivo; conditions: 10 mg/kg b.w. i.p. repeated; for Plasma AspaT activity: relative to both control groups (standard or palatable feed); for Plasma ALP activity: vs control group fed standard feed; for Plasma gGT activity: vs palatable feed-fed control group
Description: Standard diet ( 8% fats, 67% carbohydrates, and 25% proteins) contained 100 g feed—280 kcal. Rats fed a palatable diet had access to a diet consisting of milk chocolate with nuts, cheese, salted peanuts, and 7% condensed milk and simultaneously to standard feed (Labofeed B, Morawski Manufacturer Feed, Kcynia, Poland) for 4 weeks. The feeding was not in any way forced, and rats decided themselves when, what, and how much to eat. A palatable diet contained 100 g of peanuts—612 kcal; 100 mL of condensed milk—131 kcal; 100 g of milk chocolate—529 kcal; and 100 g of cheese—325 kcal.
The study evaluating the activities of alanine aminotransferase (AlaT), aspartate aminotransferase (AspaT), gamma-glutamyl transpeptidases (gGT), and alkaline phosphatase (ALP) was carried out after completing the excessive eating model experiments described in our previous work. Compounds were administered for twenty-eight days at a dose of 10 mg/kg b.w./day. On the 31st day of the experiment, 20 min after i.p. administration of heparin (5000 units/rat) and thiopental (70 mg/kg b.w.), blood was collected from the left carotid artery and then centrifuged at 600× g (15 min, 4 °C) in order to obtain the plasma. To determine the activities of AlaT, AapaT, gGT, and ALP in the plasma samples, a standard enzymatic spectrophotometric test (Biomaxima S.A., Lublin, Poland) was used.

σ1R = target: σ1R; parameters: method as in PMID 34908391; conditions: cited from earlier work; for σ1/σ2: ratio of Ki values
mice [3] = experiment: Locomotor activity in mice (activity cages, photobeam breaks); type: in vivo, male Albino Swiss (CD-1) mice; conditions: single i.p. 30 mg/kg b.w., vs vehicle group
Description: as §1
Locomotor activity was individually recorded for each animal using specifically designed activity cages made of clear Perspex (40 cm × 40 cm × 31 cm, Activity Cage 7441, Ugo Basile, Italy). The cages were supplied with I.R. horizontal beam emitters connected to a counter that records the light-beam interruptions. The compounds suspensions were administered as i.p. injections 30 min before testing. Control animals received injections of vehicles. Each mouse was placed in a cage for a 30 min habituation period. After that time, the number of breaks in the photobeams was measured for 5 min, which is the same time as the observation period used in other tests.

mice [4] = experiment: Motor coordination in the chimney test; type: in vivo, male Albino Swiss (CD-1) mice; conditions: for % of Mice Impaired: chimney test, 30 min after injection, n = 8
Description: as §1
The effect of tested compounds on motor impairment were quantified with the chimney test of Boissier et al. (1960). The mice were trained before the test, and only the animals able to get out of the chimney within 1 min were used at the experimental stage. The selected mice were placed in a 25 cm-long and 2.5 cm in diameter […] tube, which was reversed so that the mice could leave it only by climbing up backward until they reached the other end. The test was performed 30 min after injection (i.p.) of the examined compounds. Motor impairment was indicated by the inability of the animals to climb up backwards in the transparent tube within 60 s.

H3R = target: H3R; parameters: method as in PMID 34908391; conditions: cited from earlier work; for H3/σ1 / H3/σ2: ratio of Ki values

| SMILES | Heart rate (rats; time 0 min) [beats/min] | PQ (rats; time 0 min) [ms] | QRS (rats; time 0 min) [ms] | QT (rats; time 0 min) [ms] | Heart rate (rats; time 15 min) [beats/min] | PQ (rats; time 15 min) [ms] | QRS (rats; time 15 min) [ms] | QT (rats; time 15 min) [ms] | Heart rate (rats; time 30 min) [beats/min] | PQ (rats; time 30 min) [ms] | QRS (rats; time 30 min) [ms] | QT (rats; time 30 min) [ms] | Heart rate (rats; time 45 min) [beats/min] | PQ (rats; time 45 min) [ms] | QRS (rats; time 45 min) [ms] | QT (rats; time 45 min) [ms] | Heart rate (rats; time 60 min) [beats/min] | PQ (rats; time 60 min) [ms] | QRS (rats; time 60 min) [ms] | QT (rats; time 60 min) [ms] | further results |
| --- | --- | --- | --- | --- | --- | --- | --- | --- | --- | --- | --- | --- | --- | --- | --- | --- | --- | --- | --- | --- | --- |
| c1ccc(-c2ccc(OCCCN3CCN(c4ccncc4)CC3)cc2)cc1 [KSK-61] | 373.2 ± 20.3 | 53 ± 1.6 | 20.8 ± 0.8 | 56.3 ± 4.1 | 369.5 ± 9.5 | 52.8 ± 1.5 | 21.5 ± 0.5 | 56.3 ± 2.2 | 380.2 ± 30.5 | 54.5 ± 3.5 | 21.8 ± 1.1 | 58.8 ± 2.2 | 349.5 ± 21.3 | 53.3 ± 1.8 | 21.8 ± 0.8 | 57.5 ± 4.3 | 360.4 ± 20.3 | 53 ± 1.6 | 21.8 ± 0.4 | 55 ± 5.0 | Ki (σ2R): 108 nM; Effect on blood pressure (normotensive rats; single i.p. 10 mg/kg b.w., vs vehicle (1% Tween 80)): did not affect blood pressure; IC50 [1]: 2660 ± 217 nM; Inhibition of hERG compared with verapamil [1]: about five times weaker; Plasma AspaT activity [2]: higher AspaT activity; Plasma ALP activity [2]: greater ALP activity; Plasma gGT activity [2]: statistically lower gGT activity; Ki (σ1R): 638 nM; σ1/σ2 (σ1R): 5.90; Locomotor activity (mice [3]): significant decrease; % of Mice Impaired (mice [4]; 10 mg/kg i.p.): 25%; % of Mice Impaired (mice [4]; 20 mg/kg i.p.): 12.5%; % of Mice Impaired (mice [4]; 30 mg/kg i.p.): 25%; Effect on motor coordination (chimney test) (mice [4]; mice, 10-30 mg/kg i.p., Fisher exact probability test): decreases the ability to exit the chimney at all doses tested in one or two mice per group; Ki (H3R): 21.1 nM; H3/σ1 (H3R): 0.03; H3/σ2 (H3R): 0.20 |
| O=C(c1ccccc1)c1ccc(OCCCN2CCN(c3ccncc3)CC2)cc1 [KSK-63] | 393.8 ± 34.8 | 57.5 ± 2.5 | 20.0 ± 0.0 | 63.3 ± 5.1 | 362.8 ± 38.0 | 55.0 ± 5.0 | 20.0 ± 0.0 | 64.4 ± 2.6 | 365.2 ± 34.8 | 58.75 ± 1.3 | 20.0 ± 0.0 | 65.3 ± 4.7 | 344.3 ± 30.8 | 55.0 ± 5.0 | 20 ± 0.0 | 62.1 ± 1.6 | 344.3 ± 30.8 | 62.5 ± 2.1 | 20.0 ± 0.0 | 65.2 ± 3.6 | Ki (σ2R): 29.2 nM; Increase of systolic blood pressure (normotensive rats; single i.p. 10 mg/kg b.w., 5, 10 and 20 min after administration): 16–22 mmHg; IC50 [1]: 570 ± 50 nM; Inhibition of hERG compared with verapamil [1]: close to the reference compound; Plasma AspaT activity [2]: higher AspaT activity; Plasma ALP activity [2]: greater ALP activity; Plasma gGT activity [2]: statistically lower gGT activity; Plasma AlaT activity ([2]; vs vehicle control fed palatable feed): lower; Ki (σ1R): 726 nM; σ1/σ2 (σ1R): 24.83; Locomotor activity (mice [3]): significant decrease; % of Mice Impaired (mice [4]; 10 mg/kg i.p.): 0%; % of Mice Impaired (mice [4]; 20 mg/kg i.p.): 0%; % of Mice Impaired (mice [4]; 30 mg/kg i.p.): 0%; H3/σ1 (H3R): 0.004; H3/σ2 (H3R): 0.11 |
